From US20140094465A1, “Compounds as S-Nitrosoglutathione Reductase Inhibitors” (N30 PHARMACEUTICALS, INC., priority 2011, published 2014)
Where two headings read alike, the source gives them in different places.

Target: T1, S-nitrosoglutathione reductase (GSNOR) (Homo sapiens, UniProt P11766)
T1 construct: made in house; host or cells: E. coli
Test: GSNOR assay (inhibition of GSNOR activity, NADH absorbance at 340 nm)
Type: biochemical
Outline: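 Recombinant GSNOR purified from E. coli, tag removed. Final conditions: 100 mM NaPO4 pH 7.4, 0.240 mM GSNO, 0.300 mM NADH, 0.5 μg/mL enzyme, 1% DMSO; NADH loss followed as 340 nm absorbance change over 3 min at 25 °C. Compounds 100–0.003 μM, triplicate; IC50 by curve analysis.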

[1] = Table 7, GSNOR inhibition, IC50 range class a/b/c, read-out: IC50
[2] = Table 8, GSNOR inhibition, IC50 range class a/b/c, read-out: IC50

T1 sequence (P11766 whole entry): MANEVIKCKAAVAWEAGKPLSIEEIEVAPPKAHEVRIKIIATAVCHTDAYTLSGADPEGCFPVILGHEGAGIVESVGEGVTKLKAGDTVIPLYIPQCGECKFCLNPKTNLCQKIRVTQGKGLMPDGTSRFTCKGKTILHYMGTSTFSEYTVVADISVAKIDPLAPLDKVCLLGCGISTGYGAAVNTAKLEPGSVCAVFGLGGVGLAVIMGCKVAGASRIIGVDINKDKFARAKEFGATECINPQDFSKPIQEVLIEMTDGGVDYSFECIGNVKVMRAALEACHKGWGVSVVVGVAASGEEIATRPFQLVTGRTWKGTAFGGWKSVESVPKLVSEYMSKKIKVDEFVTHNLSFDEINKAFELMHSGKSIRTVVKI

SMILES | IC50 [2] [nM] | other results
CCCCCCn1c(-c2ccc(O)cc2)ccc1-c1ccc(C(=O)O)cc1 [VII-34, 4-(1-hexyl-5-(4-hydroxyphenyl)-1H-pyrrol-2-yl)benzoic acid] | – | IC50 [1]: < 100 nM
CCOCCn1c(-c2ccc(O)cc2)ccc1-c1ccc(C(=O)O)cc1 [VII-35, 4-(1-(2-ethoxyethyl)-5-(4-hydroxyphenyl)-1H-pyrrol-2-yl)benzoic acid] | – | IC50 [1]: < 100 nM
CCOCCCn1c(-c2ccc(O)cc2)ccc1-c1ccc(C(=O)O)cc1 [VII-36, 4-(1-(3-ethoxypropyl)-5-(4-hydroxyphenyl)-1H-pyrrol-2-yl)benzoic acid] | – | IC50 [1]: < 100 nM
CCCn1c(-c2ccc(O)cc2)ccc1-c1ccc(C(=O)O)cc1 [VII-37, 4-(5-(4-hydroxyphenyl)-1-propyl-1H-pyrrol-2-yl)benzoic acid] | – | IC50 [1]: < 100 nM
CSc1nc2cc(O)ccc2c(=O)n1-c1ccc(C(=O)O)cc1 [VIII-1, 4-(7-hydroxy-2-(methylthio)-4-oxoquinazolin-3(4H)-yl)benzoic acid] | 1000 to 10000 | –
O=C(O)c1ccc(-n2c(C(F)(F)F)nc3cc(O)ccc3c2=O)cc1 [VIII-2, 4-(7-hydroxy-4-oxo-2-(trifluoromethyl)quinazolin-3(4H)-yl)benzoic acid] | – | IC50: 100 to 1000 nM
O=C(O)c1ccc(-n2ccc3cc(O)ccc3c2=O)cc1 [VIII-3, 4-(6-hydroxy-1-oxoisoquinolin-2(1H)-yl)benzoic acid] | < 100 | –
O=C(O)c1ccc(N2CCc3cc(O)ccc3C2=O)cc1 [VIII-4, 4-(6-hydroxy-1-oxo-3,4-dihydroisoquinolin-2(1H)-yl)benzoic acid] | < 100 | –
Oc1ccc2nc(-c3ccc(-c4nnn[nH]4)cc3)sc2c1 [VIII-5, 2-(4-(1H-tetrazol-5-yl)phenyl)benzo[d]thiazol-6-ol] | 100 to 1000 | –
O=C(O)c1ccc(N2CCc3cc(O)ccc3C2)cc1 [VIII-6, 4-(6-hydroxy-3,4-dihydroisoquinolin-2(1H)-yl)benzoic acid] | 1000 to 10000 | –
O=C(O)c1ccc(-c2nc3ccc(O)cc3s2)cc1 [VIII-7, 4-(6-hydroxybenzo[d]thiazol-2-yl)benzoic acid] | 100 to 1000 | –
O=C(O)c1ccc(-c2cc(=O)c3cc(O)ccc3[nH]2)c(F)c1 [VIII-8, 3-fluoro-4-(6-hydroxy-4-oxo-1,4-dihydroquinolin-2-yl)benzoic acid] | 1000 to 10000 | –
O=C(O)c1ccc(-c2cc(=O)c3cc(O)ccc3[nH]2)c(Cl)c1 [VIII-9, 3-chloro-4-(6-hydroxy-4-oxo-1,4-dihydroquinolin-2-yl)benzoic acid] | 1000 to 10000 | –
Cn1c(-c2ccc(C(=O)O)cc2)nc2ccc(O)cc2c1=O [VIII-10, 4-(6-hydroxy-3-methyl-4-oxo-3,4-dihydroquinazolin-2-yl)benzoic acid] | < 100 | –
Cn1c(-c2ccc(C(=O)O)cc2)cc2ccc(O)cc2c1=O [VIII-11, 4-(7-hydroxy-2-methyl-1-oxo-1,2-dihydroisoquinolin-3-yl)benzoic acid] | 100 to 1000 | –
Cc1cc2cc(O)ccc2c(=O)n1[C@H]1CC[C@H](C(=O)O)CC1 [VIII-12, (trans)-4-(6-hydroxy-3-methyl-1-oxoisoquinolin-2(1H)-yl)cyclohexanecarboxylic acid] | 100 to 1000 | –
Cc1cc2cc(O)ccc2c(=O)n1-c1ccc(C(=O)O)cc1 [VIII-13, 4-(6-hydroxy-3-methyl-1-oxoisoquinolin-2(1H)-yl)benzoic acid] | 100 to 1000 | –
O=c1c2ccc(O)cc2ccn1[C@H]1CC[C@H](C(=O)O)CC1 [VIII-14, (trans)-4-(6-hydroxy-1-oxoisoquinolin-2(1H)-yl)cyclohexanecarboxylic acid] | 1000 to 10000 | –
O=c1c2ccc(O)cc2cc(C(F)(F)F)n1[C@H]1CC[C@H](C(=O)O)CC1 [VIII-15, (trans)-4-(6-hydroxy-1-oxo-3-(trifluoromethyl)isoquinolin-2(1H)-yl)cyclohexanecarboxylic acid] | < 100 | –
O=C1c2ccc(O)cc2CCN1[C@H]1CC[C@H](C(=O)O)CC1 [VIII-16, (trans)-4-(6-hydroxy-1-oxo-3,4-dihydroisoquinolin-2(1H)-yl)cyclohexanecarboxylic acid] | 1000 to 10000 | –
